Laboratory results published in US20260263473A1 (priority 2023, published 2026).

Test: Blood levels of the actives after the three-compartment transdermal patch in a COVID patient
Format: in vivo, human
Conditions: for time at which blood levels rose to a peak: transdermal patch (48 mg ivermectin, 300 mg doxycycline, 50 mg zinc chelate; gelling agent and water), adhered to left side of chest for 3 days
Protocol: A patient with diabetes and hypertension had acquired COVID as proven by PCR. […] They were treated with a transdermal patch containing higher dose of active antiviral drugs including 48 mg of ivermectin, 300 mg of doxycycline, and 50 mg of zinc chelate. The transdermal patch had three separate compartments, each compartment containing one of ivermectin, doxycycline and zinc chelate. Each active ingredient was formulated with a gelling agent and water. The patch remained adhered to the left side of the chest for 3 days. Blood levels of each of the ivermectin, doxycycline and zinc chelate rose to a peak at 10 hrs, The patient's cough continued but slowly resolved and they were not breathless. […] The patient oxygen saturation improved within 2 days with oximetry rising to 96%.

[1] = orally treated patients (comparison)
[2] = transdermal patch, adhered to chest for 3 days, one patient

## C[C@H]1c2cccc(O)c2C(=O)C2=C(O)[C@]3(O)C(=O)C(C(N)=O)=C(O)[C@@H](N(C)C)[C@@H]3[C@@H](O)[C@@H]21 [doxycycline]
[1]
  persistence of blood levels (area under the curve): 48 h
One patient
  time at which blood levels rose to a peak: 10 h
[2]
  area under the curve compared with single oral medications: greater than that of single oral medications
  persistence of blood levels (area under the curve): 140 h

## ivermectin
[1]
  persistence of blood levels (area under the curve): 48 h
One patient
  time at which blood levels rose to a peak: 10 h
[2]
  area under the curve compared with single oral medications: greater than that of single oral medications
  persistence of blood levels (area under the curve): 140 h
